How the values were obtained:
[1] = target: T1, tissue-type plasminogen activator (tPA) (Homo sapiens, UniProt P00750); assay: tPA activity assay (chromogenic substrate); assay type: biochemical
T1 construct: purchased abcam
Description: Tris hydrochloride, 1M, pH = 7.5 solution (Thermo Fisher Scientific, Waltham, MA, USA) was used as buffer. […] Recombinant human Tissue Plasminogen Activator (abcam, Cambridge, UK) served as the source of tPA, and was stored at −20 °C until used.
The assay measures the inhibition of tPA’s catalytic domain by the tested compounds employing a chromogenic substrate. Different concentrations of the studied molecules were incubated with tPA in a 96-well plate at 37 °C for 10 min. […] After, 20 μL of tPA’s substrate was added to each well. […] The slope for each assay was obtained from the initial and final absorbance values and their respective time points, or until complete substrate cleavage was achieved. (3) Absorbance slope=Abs2−Abs1/t2−t1
The Relative tPA Inhibition for each condition was calculated using Equation (2). Then, the Relative tPA Activity (%) was calculated by subtracting the relative tPA inhibition of each concentration from the total activity of the enzyme, obtained from a control without a compound.

[2] = target: T2, plasminogen (Homo sapiens, UniProt P00747); assay: Plasminogen activation assay (conversion of plasminogen into plasmin by tPA in the absence of fibrin); assay type: biochemical
T2 construct: purchased abcam
T2 sequence (P00747 20-810 limits assumed): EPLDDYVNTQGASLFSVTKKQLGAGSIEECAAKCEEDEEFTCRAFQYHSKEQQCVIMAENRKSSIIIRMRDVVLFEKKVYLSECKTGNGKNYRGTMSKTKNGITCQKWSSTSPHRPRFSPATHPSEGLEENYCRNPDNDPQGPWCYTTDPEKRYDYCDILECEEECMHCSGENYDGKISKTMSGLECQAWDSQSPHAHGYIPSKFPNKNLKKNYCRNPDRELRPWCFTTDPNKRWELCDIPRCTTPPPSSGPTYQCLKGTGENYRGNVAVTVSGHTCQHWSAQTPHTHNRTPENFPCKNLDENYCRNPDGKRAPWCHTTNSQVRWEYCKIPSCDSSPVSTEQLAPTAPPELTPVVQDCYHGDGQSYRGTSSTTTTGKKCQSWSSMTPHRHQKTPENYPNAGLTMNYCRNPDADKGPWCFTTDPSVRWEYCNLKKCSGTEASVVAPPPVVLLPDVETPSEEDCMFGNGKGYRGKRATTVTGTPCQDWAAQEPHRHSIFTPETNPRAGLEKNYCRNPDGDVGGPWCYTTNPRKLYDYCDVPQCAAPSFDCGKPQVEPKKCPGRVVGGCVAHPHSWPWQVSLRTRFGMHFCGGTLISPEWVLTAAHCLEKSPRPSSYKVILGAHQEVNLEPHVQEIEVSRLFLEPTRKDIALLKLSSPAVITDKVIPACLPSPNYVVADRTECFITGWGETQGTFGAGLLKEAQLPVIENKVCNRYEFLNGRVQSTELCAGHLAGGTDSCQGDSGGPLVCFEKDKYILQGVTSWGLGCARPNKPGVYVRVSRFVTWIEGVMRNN
Description: The conversion rate of plasminogen to plasmin was assessed using the Tissue-Type Plasminogen Activator Activity Assay Kit (abcam), following the manufacturer’s instructions. The assay measures the ability of tPA to activate plasminogen to plasmin in the presence of the tested compounds using a chromogenic substrate.
A solution of plasminogen and plasmin substrate was mixed with a previously prepared solution of the studied compound and tPA in Tris HCl buffer in a 96-well plate. The final concentration of tPA in each well was 6.8 µg/mL, in a final volume of 100 µL. Absorbance was measured on a microplate reader at a wavelength of 405 nm every minute at 37 °C for 2 h or until the system reached saturation. The absorbance slope of each sample was determined using Equation (3). The Relative Plasminogen Activation (%) for each condition was calculated with Equation (4), using a control without a compound (enzyme control). (4) Relative Plasminogen Activation (%)=SlopeCompound−SlopeControl/SlopeControl×100
Values were fitted to a linear model using MATLAB R2023a (The Math Works Inc., Natick, MA, USA). Concentrations at which each compound was able to increase plasminogen’s conversion by 50% in comparison to the enzyme control were extracted and compared for the three molecules.

[3] = in vivo; conditions: both sexes, Wistar, rat, iv
Description: A MTD study was performed for compound 5 in Wistar rats and Beagle dogs. A total of 25 male and 25 female Wistar rats were received in the experimental room and acclimatized for a period of 5 days prior to randomization. The environmental and housing conditions maintained during the experiment were identical to those described in the pharmacokinetic study. At the start of dosing, rats were between 6 and 7 w.o., and their body weight varied no more than ±20% from the mean body weight for each sex. During randomization, 20 male and 20 female rats were selected for the study, which were randomly allocated to four different dose level groups: D1, D2, D3, and D4. Each group consisted of 5 male and 5 female rats. The remaining 5 male and 5 female rats were returned to the animal facility.
Dose formulations of compound 5 were administered by an intravenous bolus injection through the tail vein, using a sterile needle attached to a graduated syringe. Sterile water also served as a vehicle in the MTD assay. A fixed dose volume of 5 mL/kg b. wt. was used, and individual doses were adjusted according to the most recent recorded body weight of each rat. […]
Rats were subjected to twice-daily monitoring for clinical, mortality, and morbidity signs throughout the study. […] Body weight was recorded on days 1 (before treatment), 4, 8, 11, and 14 of the study. […]

[4] = target: T3, plasmin (Homo sapiens, UniProt P00747); assay: Plasmin activity assay (Plasmin Inhibitor Screening Assay Kit); assay type: biochemical
T3 construct: purchased abcam
T3 sequence (P00747 97-580 limits assumed): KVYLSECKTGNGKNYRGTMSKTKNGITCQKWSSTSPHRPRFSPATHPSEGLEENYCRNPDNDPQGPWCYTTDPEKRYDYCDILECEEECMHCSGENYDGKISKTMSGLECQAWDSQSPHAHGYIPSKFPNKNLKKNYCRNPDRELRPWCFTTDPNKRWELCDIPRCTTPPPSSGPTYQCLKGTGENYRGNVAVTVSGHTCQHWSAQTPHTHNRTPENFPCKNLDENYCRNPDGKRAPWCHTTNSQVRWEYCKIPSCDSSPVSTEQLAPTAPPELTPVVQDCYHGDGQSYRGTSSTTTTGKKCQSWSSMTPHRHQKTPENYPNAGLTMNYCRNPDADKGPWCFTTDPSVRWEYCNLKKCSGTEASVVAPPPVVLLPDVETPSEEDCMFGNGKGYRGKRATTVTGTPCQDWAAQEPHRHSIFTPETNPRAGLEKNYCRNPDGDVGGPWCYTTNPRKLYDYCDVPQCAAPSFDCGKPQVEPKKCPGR
T3 sequence (P00747 581-810 limits assumed): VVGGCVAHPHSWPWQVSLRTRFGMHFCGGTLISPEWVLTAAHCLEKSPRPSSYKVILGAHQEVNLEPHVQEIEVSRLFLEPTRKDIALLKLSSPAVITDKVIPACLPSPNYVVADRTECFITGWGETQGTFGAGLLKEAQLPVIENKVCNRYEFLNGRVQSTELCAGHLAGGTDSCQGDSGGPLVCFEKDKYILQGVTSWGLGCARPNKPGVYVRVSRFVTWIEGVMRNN
Description: The potential activity of the studied compounds on the catalytic domain of plasmin was evaluated using the Plasmin Inhibitor Screening Assay Kit (abcam), following the manufacturer’s instructions. Briefly, the assay measures the inhibition of plasmin’s activity by the tested compounds through the cleavage of a fluorogenic peptide substrate. The assay was performed in flat-bottom 96-well plates. Plasmin was pre-incubated with different concentrations of the tested compounds for 10 min at RT prior to the addition of the peptide substrate. Plasmin’s activity was then measured by monitoring the increase in fluorescence intensity over time using a microplate reader (Infinite M Plex, Tecan, Männedorf, Switzerland) at an Ex/Em of 360/450 nm, every minute at 37 °C for 10 min. The slope of each sample was determined using the initial and final fluorescence values and their respective time points. (1) Fluorescence slope=RFU2−RFU1/t2−t1
The Relative Plasmin Inhibition was calculated according to the manufacturer’s instructions using a control slope with no compound (enzyme control):(2) Relative Plasmin Inhibition%=SlopeControl−SlopeCompound/SlopeControl×100

T1 sequence (P00750 36-562): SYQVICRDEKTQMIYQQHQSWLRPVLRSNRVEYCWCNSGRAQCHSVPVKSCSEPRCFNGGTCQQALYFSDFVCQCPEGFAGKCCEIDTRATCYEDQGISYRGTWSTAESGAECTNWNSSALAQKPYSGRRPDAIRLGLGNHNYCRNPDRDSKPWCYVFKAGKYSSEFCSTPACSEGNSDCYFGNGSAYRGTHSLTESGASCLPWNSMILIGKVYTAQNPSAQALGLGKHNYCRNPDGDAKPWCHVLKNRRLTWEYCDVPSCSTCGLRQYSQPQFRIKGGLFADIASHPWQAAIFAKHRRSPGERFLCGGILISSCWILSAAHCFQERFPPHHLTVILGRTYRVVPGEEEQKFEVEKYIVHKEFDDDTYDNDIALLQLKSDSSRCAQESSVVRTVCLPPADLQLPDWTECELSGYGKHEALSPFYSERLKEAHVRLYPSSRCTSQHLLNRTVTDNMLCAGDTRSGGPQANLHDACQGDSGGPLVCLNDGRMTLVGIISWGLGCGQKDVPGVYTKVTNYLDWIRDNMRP

## O=c1[nH]nc(-c2cn(C3CCNCC3)nn2)o1 [compound 5]
[1]; 0.5 mM
  percentage of tPA's activity: 93.70%
[1]; 1 mM
  percentage of tPA's activity: 91.18%
[1]; 5 mM
  percentage of tPA's activity: 88.78%
[1]; 10 mM
  percentage of tPA's activity: 89.39%
[1]; 15 mM
  percentage of tPA's activity: 103.70%
[1]; at the tested concentrations
  activity on tPA's active site: no activity
[2]; from concentration enhancing tPA's activity by 50%
  potency relative to TXA in catalyzing plasminogen's activation by tPA: more than 50 times
[2]; plasminogen-tPA isolated system, absence of fibrin
  concentration at which compound increased tPA's activity by 50%: 4.03 µM
[3]
  MTD at 14 days: 300 mg/kg
[4]; 5 mM, read-out: percentage of plasmin's inhibition
  inhibition at 5000 µM: 6.29%
[4]; 10 mM, read-out: percentage of plasmin's inhibition
  inhibition at 10000 µM: 23.9%
[4]; 15 mM, read-out: percentage of plasmin's inhibition
  inhibition at 15000 µM: 31.3%
[4]; 20 mM, read-out: percentage of plasmin's inhibition
  inhibition at 20000 µM: 65.3%
[4]; inhibition of plasmin's cleavage of a synthetic substrate by 50%
  IC50: 17.9 ± 1.24 mM
[4]; plasma clot lysis IC50 from Bosch-Sanz et al. [43]
  increase of IC50 of plasmin's catalytic domain compared to IC50 in plasma clot lysis assay: 1000 fold

From publication PMC11241262, “Unravelling the Antifibrinolytic Mechanism of Action of the 1,2,3-Triazole Derivatives” (International Journal of Molecular Sciences, 2024)
